Experimental data from patent US8809341B2, “2,4-pyrimidinediamine compounds and uses as anti-proliferative agents” (Rigel Pharmaceuticals, Inc., priority 2003, dated 2014).

How the values were obtained:
[1] = system: H1299 cells; test: in vitro antiproliferation assay, H1299 (lung); type: cell-based
Experimental: (§1) The IC50 values of various compounds against a various different tumor cell lines were determined using standard in vitro antiproliferation assays. The tumor cell lines tested were as follows: A549 (lung); H1299 (lung), ACHN (kidney/p53 wt), CAKI (renal cell carcinoma), NCI-H460 (lung); HCT116 (colon/p53w0; HELA (cervix/p53 wt), HUH7 (liver/p53 wt), HUVEC (primary endothelial), LNCAP (prostate), HT-29 (colon); MCF-7 (breast); MCF-7 (breast/ER positive), MDA MB435S (breast); MDA MB231 (breast/ER negative), DU145 (prostate); BxPC-3 (pancreatic); SKOV-3 (ovarian); HepG2 (hepatic), NDHF primary normal human dermal fibroblast), SKMEL28 (breast/p53mut), SKMEL5 (breast/p53 wt), U20S (bone) and PC3 (prostate). […] A blank indicates the specified compound was not tested against the specified cell line.

[2] = system: A549 cells; test: in vitro antiproliferation assay, A549 (lung); type: cell-based
Experimental: as §1

[3] = IC50 class against H1299 (lung) tumor cells
[4] = IC50 class against A549 (lung) tumor cells
[5] = Homo sapiens, NCI-H1299, IC50 class against H1299 (lung) tumor cells
[6] = Homo sapiens, IC50 class against A549 (lung) tumor cells
[7] = in vitro antiproliferation, H1299 (lung) cells, Table 4, compounds with no designated stereochemistry tested as racemate
[8] = in vitro antiproliferation, A549 (lung) cells, Table 4, compounds with no designated stereochemistry tested as racemate

IC50 [1, 3] [µM]	IC50 [2, 4] [µM]	Compound	also measured
≤ 20	≤ 20	CN1CCN(c2ccc(Nc3ncc(F)c(NC4CCCC4)n3)cc2)CC1 [compound 134]	–
≤ 20	≤ 20	Fc1cnc(Nc2cccc(N3CCOCC3)c2)nc1NC1CCCC1 [compound 135]	–
≤ 20	≤ 20	CC(=O)N1CCN(c2cccc(Nc3ncc(F)c(NC4CCCC4)n3)c2)CC1 [compound 136]	–
≤ 20	≤ 20	CN1CCN(c2cccc(Nc3ncc(F)c(NC4CCCC4)n3)c2)CC1 [compound 137]	–
≤ 20	≤ 20	CC(=O)N(C)c1ccc(Nc2ncc(F)c(NC3CCCCC3)n2)cc1 [compound 150]	–
≤ 20	≤ 20	CN1CCN(c2ccc(Nc3ncc(F)c(NC4CCCCC4)n3)cc2Cl)CC1 [compound 153]	–
≤ 20	≤ 20	CC(=O)N1CCN(c2ccc(Nc3ncc(F)c(NC4CCC4)n3)cc2)CC1 [compound 154]	–
≤ 20	≤ 20	CN1CCN(c2ccc(Nc3ncc(F)c(NC4CCCCC4)n3)cc2)CC1 [compound 155]	–
≤ 20	≤ 20	Cc1cc(Nc2ncc(F)c(NC3CCC3)n2)ccc1N1CCN(C)CC1 [compound 166]	–
≤ 20	≤ 20	CCN1CCN(c2ccc(Nc3ncc(F)c(NC4CCC4)n3)cn2)CC1 [compound 167]	–
≤ 20	≤ 20	CCN1CCN(c2ccc(Nc3ncc(F)c(NC4CCCC4)n3)cn2)CC1 [compound 168]	–
≤ 20	≤ 20	CCN1CCN(c2ccc(Nc3ncc(F)c(NC4CCCCC4)n3)cn2)CC1 [compound 169]	–
≤ 20	≤ 20	Cc1cc(Nc2ncc(F)c(NC3CCC3)n2)cnc1N1CCN(C)CC1 [compound 171]	–
≤ 20	≤ 20	Cc1cc(Nc2ncc(F)c(NC3CCCC3)n2)cnc1N1CCN(C)CC1 [compound 172]	–
≤ 20	≤ 20	Cc1cc(Nc2ncc(F)c(NC3CCCCC3)n2)cnc1N1CCN(C)CC1 [compound 173]	–
≤ 20	≤ 20	CN1CCN(c2ccc(Nc3ncc(F)c(NC4CCC4)n3)cc2CO)CC1 [compound 174]	–
> 20	≤ 20	NC(=O)c1ccc(Nc2ncc(F)c(NC3CCCC3)n2)cc1 [compound 175]	–
≤ 20	≤ 20	CCN(CC)CCNC(=O)c1ccc(Nc2ncc(F)c(NC3CCCC3)n2)cc1 [compound 176]	–
≤ 20	≤ 20	COC(=O)CNC(=O)c1ccc(Nc2ncc(F)c(NC3CCCC3)n2)cc1 [compound 177]	–
≤ 20	≤ 20	CN1CCN(c2ccc(Nc3ncc(F)c(NC4CC(C)(C)N(C)C(C)(C)C4)n3)cc2)CC1 [compound 178]	–
≤ 20	≤ 20	CN1CCN(c2cccc(Nc3ncc(F)c(NC4CC(C)(C)N(C)C(C)(C)C4)n3)c2)CC1 [compound 179]	–

IC50 [1, 3] [µM]	IC50 [2, 4] [µM]	Compound	also measured
≤ 20	≤ 20	CN1CCN(c2ccc(Nc3ncc(F)c(NC4CC(C)(C)N(C)C(C)(C)C4)n3)cc2Cl)CC1 [compound 180]	–
≤ 20	≤ 20	Cc1cc(Nc2ncc(F)c(NC3CC(C)(C)N(C)C(C)(C)C3)n2)ccc1N1CCN(C)CC1 [compound 181]	–
≤ 20	≤ 20	CN1CCN(c2ccc(Nc3ncc(F)c(NC4CC(C)(C)N(C)C(C)(C)C4)n3)cc2C(F)(F)F)CC1 [compound 182]	–
≤ 20	≤ 20	CCN1CCN(c2ccc(Nc3ncc(F)c(NC4CC(C)(C)N(C)C(C)(C)C4)n3)cn2)CC1 [compound 183]	–
≤ 20	≤ 20	Cc1cc(Nc2ncc(F)c(NC3CC(C)(C)N(C)C(C)(C)C3)n2)cnc1N1CCN(C)CC1 [compound 184]	–
≤ 20	≤ 20	CCOC(=O)N1CCC(Nc2nc(Nc3ccc(N4CCN(C)CC4)cc3)ncc2F)CC1 [compound 185]	–
≤ 20	≤ 20	CCOC(=O)N1CCC(Nc2nc(Nc3cccc(N4CCN(C)CC4)c3)ncc2F)CC1 [compound 186]	–
≤ 20	≤ 20	CCOC(=O)N1CCC(Nc2nc(Nc3ccc(N4CCN(C)CC4)c(Cl)c3)ncc2F)CC1 [compound 187]	–
≤ 20	≤ 20	CCOC(=O)N1CCC(Nc2nc(Nc3ccc(N4CCN(C)CC4)c(C)c3)ncc2F)CC1 [compound 188]	–
≤ 20	≤ 20	CCOC(=O)N1CCC(Nc2nc(Nc3ccc(N4CCN(C)CC4)c(C(F)(F)F)c3)ncc2F)CC1 [compound 189]	–
≤ 20	≤ 20	CCOC(=O)N1CCC(Nc2nc(Nc3ccc(N4CCN(C)CC4)nc3)ncc2F)CC1 [compound 190]	–
–	–	CC(=O)N1CCN(c2cccc(Nc3ncc(F)c(Nc4cc(C(C)(C)C)[nH]n4)n3)c2)CC1 [compound 200]	IC50 [1, 5]: ≤ 20 µM; IC50 [2, 6]: ≤ 20 µM
–	–	CCOC(=O)N1CCN(c2cccc(Nc3ncc(F)c(Nc4cc(C(C)(C)C)[nH]n4)n3)c2)CC1 [compound 201]	IC50 [1, 5]: ≤ 20 µM; IC50 [2, 6]: ≤ 20 µM
–	–	CC(=O)N1CCN(c2ccc(Nc3ncc(F)c(Nc4cc(C(C)(C)C)[nH]n4)n3)cc2)CC1 [compound 202]	IC50 [1, 5]: ≤ 20 µM; IC50 [2, 6]: ≤ 20 µM
–	–	COC(=O)N1CCN(c2ccc(Nc3ncc(F)c(Nc4cc(C(C)(C)C)[nH]n4)n3)cc2)CC1 [compound 203]	IC50 [1, 5]: ≤ 20 µM; IC50 [2, 6]: ≤ 20 µM
–	–	CN1CCN(c2ccc(Nc3ncc(F)c(Nc4cc(C(C)(C)C)[nH]n4)n3)cc2)CC1 [compound 204]	IC50 [1, 5]: ≤ 20 µM; IC50 [2, 6]: ≤ 20 µM
–	–	CC(=O)N1CCN(c2cccc(Nc3ncc(F)c(Nc4cc(C5CC5)[nH]n4)n3)c2)CC1 [compound 205]	IC50 [1, 5]: ≤ 20 µM; IC50 [2, 6]: ≤ 20 µM
–	–	CN1CCN(c2ccc(Nc3ncc(F)c(Nc4cc(C5CC5)[nH]n4)n3)cc2)CC1 [compound 206]	IC50 [1, 5]: ≤ 20 µM; IC50 [2, 6]: ≤ 20 µM
–	–	Fc1cnc(Nc2cccc(N3CCOCC3)c2)nc1Nc1cc(C2CC2)[nH]n1 [compound 207]	IC50 [1, 5]: ≤ 20 µM; IC50 [2, 6]: ≤ 20 µM
–	–	CCOC(=O)N1CCN(c2ccc(Nc3ncc(F)c(Nc4cc(C5CC5)[nH]n4)n3)cc2)CC1 [compound 209]	IC50 [1, 5]: ≤ 20 µM; IC50 [2, 6]: ≤ 20 µM
–	–	Fc1cnc(Nc2ccc(N3CCOCC3)cc2)nc1Nc1cc(C2CC2)[nH]n1 [compound 210]	IC50 [1, 5]: > 20 µM; IC50 [2, 6]: ≤ 20 µM

IC50 [1, 3] [µM]	IC50 [2, 4] [µM]	Compound	also measured
–	–	CN1CCN(c2ccc(Nc3ncc(F)c(Nc4cc(C5CC5)[nH]n4)n3)cc2Cl)CC1 [compound 212]	IC50 [1, 5]: ≤ 20 µM; IC50 [2, 6]: ≤ 20 µM
–	–	Cc1cc(Nc2ncc(F)c(Nc3cc(C4CC4)[nH]n3)n2)ccc1N1CCN(C)CC1 [compound 213]	IC50 [1, 5]: ≤ 20 µM; IC50 [2, 6]: ≤ 20 µM
–	–	CN1CCN(c2ccc(Nc3ncc(F)c(Nc4cc(C5CC5)[nH]n4)n3)cc2C(F)(F)F)CC1 [compound 214]	IC50 [1, 5]: ≤ 20 µM; IC50 [2, 6]: ≤ 20 µM
≤ 20	≤ 20	CC(C)Nc1nc(Nc2ccc(N3CCN(C)CC3)cc2)ncc1F [compound 215]	–
≤ 20	≤ 20	CC(C)Nc1nc(Nc2ccc(N3CCN(C)CC3)c(Cl)c2)ncc1F [compound 216]	–
≤ 20	≤ 20	Cc1cc(Nc2ncc(F)c(NC(C)C)n2)ccc1N1CCN(C)CC1 [compound 217]	–
≤ 20	≤ 20	CC(C)Nc1nc(Nc2ccc(N3CCN(C)CC3)c(C(F)(F)F)c2)ncc1F [compound 218]	–
≤ 20	≤ 20	CC(C)Nc1nc(Nc2cccc(N3CCN(C)CC3)c2)ncc1F [compound 219]	–
≤ 20	≤ 20	CN1CCN(c2ccc(Nc3ncc(F)c(NC(C)(C)C)n3)cc2)CC1 [compound 220]	–
≤ 20	≤ 20	CN1CCN(c2cccc(Nc3ncc(F)c(NC(C)(C)C)n3)c2)CC1 [compound 221]	–
≤ 20	≤ 20	CN1CCN(c2ccc(Nc3ncc(F)c(NC(C)(C)C)n3)cc2Cl)CC1 [compound 222]	–
≤ 20	≤ 20	Cc1cc(Nc2ncc(F)c(NC(C)(C)C)n2)ccc1N1CCN(C)CC1 [compound 223]	–
≤ 20	≤ 20	CN1CCN(c2ccc(Nc3ncc(F)c(NC(C)(C)C)n3)cc2C(F)(F)F)CC1 [compound 224]	–
≤ 20	≤ 20	CCN1CCN(c2ccc(Nc3ncc(F)c(NC(C)C)n3)cn2)CC1 [compound 225]	–
≤ 20	≤ 20	CCN1CCN(c2ccc(Nc3ncc(F)c(NC(C)(C)C)n3)cn2)CC1 [compound 226]	–
≤ 20	≤ 20	Cc1cc(Nc2ncc(F)c(NC(C)C)n2)cnc1N1CCN(C)CC1 [compound 227]	–
–	–	Cc1cc(C)cc(Nc2ncc(F)c(Nc3ccc4c(c3)NC(=O)C(C)O4)n2)c1 (stereo not drawn) [compound 229]	IC50 [1, 7]: ≤ 20 µM; IC50 [2, 8]: ≤ 20 µM
–	–	O=C1COc2ccc(Nc3nc(Nc4cccc(-c5ncco5)c4)ncc3F)cc2N1 [compound 236]	IC50 [1, 7]: ≤ 20 µM; IC50 [2, 8]: ≤ 20 µM
–	–	O=C1COc2ccc(Nc3nc(Nc4cccc(-c5cnco5)c4)ncc3F)cc2N1 [compound 239]	IC50 [1, 7]: ≤ 20 µM; IC50 [2, 8]: > 20 µM
–	–	C[C@@H]1Oc2ccc(Nc3nc(Nc4cccc(-c5cnco5)c4)ncc3F)cc2NC1=O [compound 240]	IC50 [1, 7]: > 20 µM; IC50 [2, 8]: ≤ 20 µM
–	–	CN1C(=O)COc2ccc(Nc3nc(Nc4cccc(O)c4)ncc3F)cc21 [compound 255]	IC50 [1, 7]: ≤ 20 µM; IC50 [2, 8]: ≤ 20 µM
